This note sets out measurements from patent US20180256654A1, “USE OF LACTOBACILLUS PARACASEI STRAIN GMNL-653 TO PREPARE COMPOSITION FOR RESISTING BONE LOSS” (GENMONT BIOTECH INC., priority 2017, published 2018).

The test system of this assay is ovariectomized ICR female mice. Nature of the assay: Bone tissue analysis by micro computed tomography: trabecular bone volume ratio in the osteoporosis mouse model. To be noted: oral gavage for 28 days. Type of assay: in vivo. Here is the method: Preparation of dead bacteria: 1 μl Lactobacillus paracasei strain GMNL-653 and the Lactobacillus salivarius strain GMNL-678 frozen viral was inoculated to 1 ml of MRS broth, respectively, and aerobically incubated at 37° C. for 20 hours (first activation). The next day, adding 15 μl culture solution (first activation) into 1.5 ml of MRS broth, and then and aerobically incubated at 37° C. for 20 hours (secondary activation) Estimating the bacteria number by using OD 600 nm to adjust the bacteria concentration to 4.1×10^8 CFU/ml, and heat-killed bacteria was carried by autoclaving at 121° C. for 15 minutes. […]
Micro computed tomography (SkyScan 1076, Kontizh, Belgium, with resolution of 18 μm) was taken of the backbone of the right femur far from the end was taken, and the trabecular bone volume ratio (i.e. bone volume/tissue volume; BV/TV) was analyzed by a software. The analyzed position was selected to include the area of 100 pieces under the growth plate excluding cortical bone. […] The obtained data in the experiments were analyzed with two-way analysis of variance, and the T-test statistical analysis. […] After comparisons, the abovementioned groups were analyzed statistically and noted by different marks to represent the statistically significant differences (* represents p<0.05; ** represents p<0.01 See Table 3 and Table 4, showing the results of the experiment 1.

For the compound `NCCCC(O)(P(=O)(O)O)P(=O)(O)O` [Alendronate], the “BV/TV compared with the disease group (OVX+H2O), in words” value is given as “higher than the disease group”.
